Experimental data taken from patent US20190274968A1 (priority 2016, published 2019).

What follows are compounds tested on luciferase. Conditions: LNP with the indicated cationic lipid; 3 μg Luciferase mRNA-LNP intradermal.
Assay type: in vivo, BALB/c mice

| Structure (SMILES) | delivery of mRNA (expression of luciferase measured by IVIS) |
| --- | --- |
| CCCCCCCCC(CCCCCC)C(=O)OCCCCCCN(CCCCCCOC(=O)C(CCCCCC)CCCCCCCC)CCN(C)C (stereo not drawn) [Compound I-5] | effectively delivered |
| CCCCCCCCC(CCCCCC)C(=O)OCCCCCCCCCN(CCCCCCCCCOC(=O)C(CCCCCC)CCCCCCCC)CCN(C)C (stereo not drawn) [Compound I-6] | effectively delivered |
| CCCCCCCCC(=O)N(CCCN(C)C)C(CCCCCCCCC(=O)OCC(CCCC)CCCCCC)CCCCCCCCC(=O)OCC(CCCC)CCCCCC (stereo not drawn) [II-9] | effectively delivered |
| CCCCCCCC(=O)N(CCCN(C)C)C(CCCCCCCCC(=O)OC(CCCCCC)CCCCCC)CCCCCCCCC(=O)OC(CCCCCC)CCCCCC [II-10] | effectively delivered |
| CCCCCCCCC(=O)N(CCCN(C)C)C(CCCCCCCCC(=O)OC(CCCCCC)CCCCCC)CCCCCCCCC(=O)OC(CCCCCC)CCCCCC [II-11] | effectively delivered |
| CCCCCCCCC(CCCCCC)COC(=O)CCCCCCCCC(CCCCCCCCC(=O)OCC(CCCCCC)CCCCCCCC)N(CCCN(C)C)C(=O)CCCCCCC (stereo not drawn) [II-12] | effectively delivered |
| CCCCCCCCC(=O)N(CCCN1CCCC1)C(CCCCCCCCC(=O)OCC(CCCC)CCCCCC)CCCCCCCCC(=O)OCC(CCCC)CCCCCC (stereo not drawn) [II-36] | effectively delivered |
| CCCCCCCCC(CCCCCC)C(=O)OCCCCCCN(CCCCO)CCCCCCOC(=O)C(CCCCCC)CCCCCCCC (stereo not drawn) [III-3] | effectively delivered |
| CCCCCCCCC(CCCCCC)C(=O)OCCCCCCN(CCCCCO)CCCCCCOC(=O)C(CCCCCC)CCCCCCCC (stereo not drawn) [III-7] | effectively delivered |
